# Entries after “also recorded” stand apart in the source; their conditions may differ.
# What was measured:
# [1] = molecular target: T1, FAK (Homo sapiens, UniProt Q05397); experiment: FAK degradation by immunoblot in PA-TU-8988T cells; type: cell-based; set-up: endogenous in cells; host or cells: PA-TU-8988T; conditions: PA-TU-8988T cells, 4 hours; for Degradation of FAK protein (in words): 0.1 nM to 1000 nM, immunoblot; for inhibition at 0.01 µM / inhibition at 0.1 µM: PaTu 8988t, total FAK protein, vs DMSO; for inhibition at 0.01 µM: 10 nM, read-out: Degradation at 10 nM; for inhibition at 0.1 µM: 100 nM, read-out: Degradation at 100 nM
# Procedure: (§1) Immunoblotting for FAK was performed to evaluate changes in protein levels upon FAK degrader treatment. All samples were run with equal total protein content and immunoblotting was performed using antibodies that detect total FAK protein as well as GAPDH or α-Tubulin as a loading control. Fluorescently labelled infrared secondary antibodies that enable detection using an Odyssey® CLx Imager was employed to evaluate protein levels.
# FAK degraders were evaluated in immunoblot assays to determine the effective dose required to achieve FAK protein loss. Immunoblots for FAK protein were normalized relative to the loading control and percent degradation was evaluated compared to DMSO treatment.
# [2] = molecular target: T1, FAK; experiment: Rescue of compound 9-induced FAK degradation in PA-TU-8988T cells after pre-treatment; type: cell-based; set-up: endogenous in cells; host or cells: PA-TU-8988T; conditions: pre-treatment 2 hours (0.5 μM carfilzomib, 1.0 μM MLN4924, 10 μM lenalidomide, 10 μM compound 13), then 10 nM compound 9 for 4 hours
# Procedure: as §1, with “PA-TU-8988T cells were treated with FAK degraders or indicated inhibitors for four hours at the indicated doses. After four hours, PA-TU-8988T cells were lysed in radioimmunoprecipitation assay (RIPA) buffer (Thermo Scientific™) on ice for 60 minutes and lysates were clarified by centrifugation. Immunoblotting” for “Immunoblotting”
# [3] = molecular target: T1, FAK; experiment: In vitro kinase assay (Life Technologies), FAK; conditions: ATP concentration = Km, duplicate; read-out: Biochemical IC50 FAK
# Procedure: (§2) In vitro kinase assays with inventive compound 13 and VS-4718 were performed by Life Technologies™ in duplicate at an ATP concentration=Km for each indicated kinase. The results are summarized in Table 2 and indicate that inventive compound 13 maintained potent FAK activity, with improved activity on ALK as compared to VS-4718.
# [4] = test system: kinome; experiment: KINOMEscan competition binding assays; conditions: 1000 nM, compared to VS-4718
# Procedure: KINOMEscan® competition binding assays with inventive compound 13 and VS-4718 were performed by DiscovrX at 1000 nM. […] Additionally, despite the observed activity of compound 13 on ALK, degradation of ALK with compound 9 was not observed (FIG. 6B).
# [5] = molecular target: T2, ALK (Homo sapiens, UniProt Q9UM73); experiment: In vitro kinase assay (Life Technologies), ALK; set-up: purchased Life Technologies; conditions: ATP concentration = Km, duplicate; read-out: Biochemical IC50 ALK
# Procedure: as §2
# [6] = molecular target: T1, FAK; experiment: FAK degradation by immunoblot in H3122 cells; type: cell-based; set-up: endogenous in cells; host or cells: H3122; conditions: 10 nM to 1000 nM, 16 hours (compound 10) or 24 hours (compounds 1, 9)
# [7] = molecular target: T1, FAK; experiment: In vivo FAK degradation in PA-TU-8988T xenograft tumors; set-up: endogenous in cells; host or cells: PA-TU-8988T; conditions: nude mice, 10 to 50 mpk intraperitoneal, three consecutive days, 4 hours after final treatment
# Procedure: (§3) Mice were treated for three consecutive days and assessments were performed 4 hours after the third and final treatment.
# (§4) PA-TU-8988T cells were implanted into the flanks of nude mice. After tumors had formed, mice were treated with indicated FAK degraders for three consecutive days via intraperitoneal administration and sacrificed 4 hours after the third and final treatment. Tumors and livers were harvested and lysed in RIPA on ice for 60 minutes and lysates were clarified by centrifugation. Immunoblotting for FAK was performed to evaluate changes in protein levels upon FAK degrader administration. All samples were run with equal total protein content and immunoblotting was performed using antibodies that detect total FAK protein as well as α-Tubulin as a loading control. Fluorescently labelled infrared secondary antibodies that enable detection using an Odyssey® CLx Imager was employed to evaluate protein levels.
# [8] = molecular target: T2, ALK; experiment: ALK degradation by immunoblot in H3122 cells; type: cell-based; set-up: endogenous in cells; host or cells: H3122; the other entry of the earlier key: EML4 (Q9HC35, Echinoderm microtubule-associated protein-like 4); conditions: 10 nM to 1000 nM, 16 hours (compound 10) or 24 hours (compounds 1, 9)
# Target sequence in this assay (Q9UM73 with tags, fused parts or gaps): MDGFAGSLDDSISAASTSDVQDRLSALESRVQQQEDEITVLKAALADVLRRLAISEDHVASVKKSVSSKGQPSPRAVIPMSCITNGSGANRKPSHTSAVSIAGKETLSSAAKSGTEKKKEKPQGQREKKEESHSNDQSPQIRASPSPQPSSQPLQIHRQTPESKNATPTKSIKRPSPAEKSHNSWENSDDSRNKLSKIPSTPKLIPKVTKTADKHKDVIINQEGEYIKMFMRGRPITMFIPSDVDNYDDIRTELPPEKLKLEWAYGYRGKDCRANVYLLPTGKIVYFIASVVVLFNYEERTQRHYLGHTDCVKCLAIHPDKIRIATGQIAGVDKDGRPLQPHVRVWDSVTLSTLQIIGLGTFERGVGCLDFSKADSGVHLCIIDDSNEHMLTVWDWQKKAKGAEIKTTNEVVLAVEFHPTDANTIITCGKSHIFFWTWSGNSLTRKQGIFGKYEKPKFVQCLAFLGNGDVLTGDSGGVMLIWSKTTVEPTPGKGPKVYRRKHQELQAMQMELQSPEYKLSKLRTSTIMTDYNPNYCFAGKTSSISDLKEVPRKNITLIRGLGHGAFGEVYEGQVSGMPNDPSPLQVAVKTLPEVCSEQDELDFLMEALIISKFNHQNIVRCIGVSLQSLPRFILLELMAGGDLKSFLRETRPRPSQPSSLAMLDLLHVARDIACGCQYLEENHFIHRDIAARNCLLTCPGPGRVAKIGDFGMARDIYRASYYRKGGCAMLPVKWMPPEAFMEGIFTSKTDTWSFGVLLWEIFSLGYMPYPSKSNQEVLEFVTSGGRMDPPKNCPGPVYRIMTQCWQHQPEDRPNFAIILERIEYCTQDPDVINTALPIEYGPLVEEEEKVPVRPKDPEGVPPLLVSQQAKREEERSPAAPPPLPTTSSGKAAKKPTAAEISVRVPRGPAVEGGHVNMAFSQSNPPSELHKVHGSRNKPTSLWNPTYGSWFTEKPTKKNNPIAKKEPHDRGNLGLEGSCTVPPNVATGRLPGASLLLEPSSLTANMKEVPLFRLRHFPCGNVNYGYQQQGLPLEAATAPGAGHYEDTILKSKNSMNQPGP
# Target sequence in this assay (Q96SW2 whole entry partner): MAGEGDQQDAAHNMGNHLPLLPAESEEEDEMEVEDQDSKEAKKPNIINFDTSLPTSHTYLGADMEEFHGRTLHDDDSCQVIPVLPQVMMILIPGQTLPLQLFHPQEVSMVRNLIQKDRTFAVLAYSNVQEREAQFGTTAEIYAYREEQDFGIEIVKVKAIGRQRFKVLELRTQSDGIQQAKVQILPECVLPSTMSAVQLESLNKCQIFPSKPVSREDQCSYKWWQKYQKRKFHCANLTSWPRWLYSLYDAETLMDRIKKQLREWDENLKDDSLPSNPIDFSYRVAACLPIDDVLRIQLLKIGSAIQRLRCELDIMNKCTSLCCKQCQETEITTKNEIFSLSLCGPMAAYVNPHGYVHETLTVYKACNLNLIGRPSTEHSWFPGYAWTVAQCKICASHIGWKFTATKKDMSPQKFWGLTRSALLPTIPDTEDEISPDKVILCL
# [9] = molecular target: T3, FAK (Mus musculus, UniProt P34152); experiment: In vivo FAK degradation in mouse livers; conditions: nude mice, 10 to 50 mpk intraperitoneal, three consecutive days, 4 hours after final treatment
# T3 construct: from tissue; host or cells: liver of nude mice
# Procedure: as §3, §4
# T1 sequence (Q05397 whole entry): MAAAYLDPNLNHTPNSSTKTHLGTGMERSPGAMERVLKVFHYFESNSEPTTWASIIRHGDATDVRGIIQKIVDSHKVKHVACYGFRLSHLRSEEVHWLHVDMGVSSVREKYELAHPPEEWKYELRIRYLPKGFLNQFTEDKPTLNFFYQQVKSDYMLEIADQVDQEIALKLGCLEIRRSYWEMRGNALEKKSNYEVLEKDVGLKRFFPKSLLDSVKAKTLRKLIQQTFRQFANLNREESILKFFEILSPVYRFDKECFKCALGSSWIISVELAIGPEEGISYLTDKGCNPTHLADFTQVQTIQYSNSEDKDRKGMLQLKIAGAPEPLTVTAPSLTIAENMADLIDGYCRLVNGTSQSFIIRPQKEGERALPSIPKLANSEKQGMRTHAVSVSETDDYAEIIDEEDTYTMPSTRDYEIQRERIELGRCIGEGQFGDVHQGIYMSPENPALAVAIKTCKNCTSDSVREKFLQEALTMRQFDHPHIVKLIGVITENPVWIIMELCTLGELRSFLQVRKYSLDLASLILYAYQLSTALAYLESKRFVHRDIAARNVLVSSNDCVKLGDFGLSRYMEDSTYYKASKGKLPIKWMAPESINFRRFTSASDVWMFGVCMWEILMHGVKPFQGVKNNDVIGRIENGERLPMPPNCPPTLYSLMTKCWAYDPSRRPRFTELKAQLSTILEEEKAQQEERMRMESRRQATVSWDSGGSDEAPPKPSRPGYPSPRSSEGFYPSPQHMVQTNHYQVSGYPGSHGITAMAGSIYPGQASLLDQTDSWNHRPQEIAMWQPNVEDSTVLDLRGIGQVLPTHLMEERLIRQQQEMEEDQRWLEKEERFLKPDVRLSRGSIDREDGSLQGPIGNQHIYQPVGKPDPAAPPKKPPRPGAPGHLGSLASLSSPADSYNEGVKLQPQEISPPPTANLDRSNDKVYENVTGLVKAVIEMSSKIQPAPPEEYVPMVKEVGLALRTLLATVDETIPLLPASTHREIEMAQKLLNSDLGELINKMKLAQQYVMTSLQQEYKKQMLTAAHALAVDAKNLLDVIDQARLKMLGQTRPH
# T3 sequence (P34152 whole entry): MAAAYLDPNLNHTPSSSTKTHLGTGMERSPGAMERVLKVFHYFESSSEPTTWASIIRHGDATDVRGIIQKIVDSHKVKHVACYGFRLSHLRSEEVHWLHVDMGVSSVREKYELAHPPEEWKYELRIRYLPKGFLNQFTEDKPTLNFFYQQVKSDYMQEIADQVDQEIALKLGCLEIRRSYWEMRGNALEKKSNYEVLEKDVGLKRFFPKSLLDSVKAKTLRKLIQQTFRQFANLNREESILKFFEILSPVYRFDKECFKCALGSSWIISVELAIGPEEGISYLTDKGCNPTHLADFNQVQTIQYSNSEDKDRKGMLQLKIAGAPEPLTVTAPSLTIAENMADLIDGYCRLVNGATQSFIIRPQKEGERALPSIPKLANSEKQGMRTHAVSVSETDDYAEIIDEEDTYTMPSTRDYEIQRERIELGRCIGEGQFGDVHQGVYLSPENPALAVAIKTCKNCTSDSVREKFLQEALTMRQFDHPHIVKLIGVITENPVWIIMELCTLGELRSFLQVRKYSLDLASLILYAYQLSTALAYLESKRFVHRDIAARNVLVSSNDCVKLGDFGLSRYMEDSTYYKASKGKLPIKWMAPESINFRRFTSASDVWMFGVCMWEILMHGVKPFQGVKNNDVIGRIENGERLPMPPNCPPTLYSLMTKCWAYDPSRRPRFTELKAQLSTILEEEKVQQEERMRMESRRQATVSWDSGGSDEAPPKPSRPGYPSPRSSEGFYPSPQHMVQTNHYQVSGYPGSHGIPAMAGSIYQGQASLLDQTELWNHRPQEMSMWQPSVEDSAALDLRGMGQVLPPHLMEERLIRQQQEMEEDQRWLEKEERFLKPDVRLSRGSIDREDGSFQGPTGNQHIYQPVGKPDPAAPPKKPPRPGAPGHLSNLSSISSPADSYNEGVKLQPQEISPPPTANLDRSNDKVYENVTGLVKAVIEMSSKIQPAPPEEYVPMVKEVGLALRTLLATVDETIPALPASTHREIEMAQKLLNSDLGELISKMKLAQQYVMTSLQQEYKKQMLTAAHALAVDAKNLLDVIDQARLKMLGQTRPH
inhibition at 0.01 µM [1] [%],inhibition at 0.1 µM [1] [%],IC50 [3] [nM],Kinome-wide selectivity [4],IC50 [5] [nM],Degradation of FAK protein in H3122 cells (in words) [6],Degradation of FAK protein in PA-TU-8988T xenograft tumors [7],Degradation of FAK protein in mouse livers [9],SMILES,Degradation of FAK protein (in words) [1],Rescue of FAK degradation induced by compound 9 [2],Degradation of ALK protein in H3122 cells (in words) [8]
0 to 24,0 to 24,21,improved kinome-wide selectivity,26.3,,,,CNC(=O)c1ccccc1Nc1cc(Nc2cc(C)c(C3CCNCC3)cc2OC(C)C)ncc1C(F)(F)F [Compound 13],did not induce degradation of FAK protein,rescued the degradation induced by compound 9,
85 to 100,85 to 100,,,,pronounced degradation of FAK protein,pronounced degradation of FAK protein,pronounced degradation of FAK protein,"CNC(=O)c1ccccc1Nc1cc(Nc2cc(C)c(C3CCN(CCCCCCNC(=O)COc4cccc5c4C(=O)N(C4CCC(=O)NC4=O)C5=O)CC3)cc2OC(C)C)ncc1C(F)(F)F (centres unmarked) [Compound 9, 2-((2-((4-(1-(6-(2-((2-(2,6-dioxopiperidin-3-yl)-1,3-dioxoisoindolin-4-yl)oxy)acetamido)hexyl)piperidin-4-yl)-2-isopropoxy-5-methylphenyl)amino)-5-(trifluoromethyl)pyridin-4-yl)amino)-N-methylbenzamide]",rapid and pronounced degradation of FAK protein,,do not show degradation of ALK; also recorded: not observed

# From US12653894B2, “Degradation of FAK or FAK and ALK by conjugation of FAK and ALK inhibitors with E3 ligase ligands and methods of use” (DANA-FARBER CANCER INSTITUTE, INC., priority 2018, dated 2026)
